Laboratory results taken from PMC5797143, “Epigenetic modulation of inflammation and synaptic plasticity promotes resilience against stress in mice” (Nature Communications, 2018).

Columns and labels:
[1] = test system: MSN-enriched primary neurons and PBMCs; assay: MTT assay; format: cell-based, mouse
Protocol: (§1) MTT and LDH release assays were conducted in MSN-enriched primary neurons and in PBMCs[64]. Cellular cytotoxicity was conducted in HepG2 cells using high content screening (HCS) protocols. Briefly, HepG2 cells were plated on 384-well tissue culture treated black walled clear bottomed polystyrene plates and treated with varying concentrations of Mal-gluc or DHCA. The cells were loaded with the relevant dye/antibody for each cell-health marker following incubation, including cell count, markers for nuclear size, DNA structure, cell membrane permeability, mitochondrial mass, mitochondrial membrane potential and cytochrome C release. The plates were then scanned using an automated fluorescent cellular imager ArrayScanr (Thermo Scientific Cellomics).

[2] = test system: MSN-enriched primary neurons and PBMCs; assay: LDH release assay; format: cell-based, mouse
Protocol: as §1

[3] = target: T1, human Ether-à-go-go-related gene (hERG) (Homo sapiens, UniProt Q12809); assay: In vitro cardiotoxicity, hERG inhibition (IonWorks HT, CHO cells); format: cell-based; conditions: CHO cells stably transfected with hERG
T1 construct: expressed in transfected cells; host or cells: CHO cells, stably transfected
Protocol: Cardiotoxicity was assessed using CHO cells stably transfected with the hERG using the IonWorks HT instrument (Molecular Devices Corporation), which automatically performs electrophysiology measurements in 48 single cells simultaneously in a specialized 384-well plate (PatchPlate)[42]. A single-cell suspension was added to the wells of a PatchPlate to form an electrical seal at the bottom and pre-compound currents were recorded. Various concentrations of Mal-gluc or DHCA were added to the cells in four replicates for 5 min and post-compound currents were then recorded. Post-compound currents are then expressed as a percentage of pre-compound currents and plotted against concentration for each compound and IC50 was calculated.

[4] = Plasma stability, human plasma; format: in vitro ADME; conditions: 37 °C
Protocol: Compound stability in mouse and human plasma and in mouse brain homogenate were conducted, [45]. Specifically, Mal-gluc or DHCA was incubated in duplicate with plasma at 37 °C and samples were taken at various time points and mixed with three volumes of ice-cold Stop Solution (methanol containing propranolol, diclofenac, or other internal standard). Samples were centrifuged to remove precipitated protein, and the supernatants were analyzed by LC/MS/MS to quantitate for remaining test compound. Data are converted to percentage remaining by dividing by the time zero concentration value. Data are fit to a first-order decay model to determine half-life. Plasma protein binding were conducted using both mouse and human plasma.

[5] = target: T2, 5-HT1A (serotonin receptor) (Homo sapiens, UniProt P08908); assay: Radioligand binding assay; conditions: 10 µM; HEK membrane fractions; quadruplicate
T2 construct: purchased NIMH Psychoactive Drug Screening Program (PDSP)
Protocol: (§2) Radioligand binding assays were performed as previously described. Briefly, crude membrane fractions prepared from a stable HEK cell line expressing recombinant receptors were mixed with a radiolabeled specific ligand and 10 µM of competitor compound (DHCA, Mal-gluc, or non-specific ligand). The percentage of radioligand binding was subsequently measured.

[6] = target: T3, 5-HT7 (serotonin receptor) (Homo sapiens, UniProt P34969); assay: Radioligand binding assay; conditions: 10 µM; HEK membrane fractions; quadruplicate
T3 construct: purchased NIMH Psychoactive Drug Screening Program (PDSP)
Protocol: as §2

M2 (muscarinic receptor) = target: T4, M2 (muscarinic receptor) (Homo sapiens, UniProt P08172); assay: Radioligand binding assay; conditions: 10 µM; HEK membrane fractions; quadruplicate
T4 construct: purchased NIMH Psychoactive Drug Screening Program (PDSP)
Protocol: as §2

[7] = target: T5, NET (norepinephrine transporter) (Homo sapiens, UniProt P23975); assay: Radioligand binding assay; conditions: 10 µM; HEK membrane fractions; quadruplicate
T5 construct: purchased NIMH Psychoactive Drug Screening Program (PDSP)
Protocol: as §2

[8] = test system: C57BL/6 mice subjected to RSDS; assay: RSDS, prophylactic treatment; format: in vivo, mouse; conditions: 5 mg/kg-BW/day DHCA or 500 ng/kg-BW/day Mal-gluc alone prior to RSDS
Protocol: To test the efficacy of BDPP in promoting resilience in stress-mediated depression, we treated C57BL/6 male mice with BDPP or vehicle for 2 weeks prior to and throughout RSDS and then performed social avoidance/interaction (SI) testing (Fig. 1a).
Based on the dose–response studies, we chose 5 mg/kg-BW/day DHCA and 500 ng/kg-BW/day Mal-gluc for the preclinical studies. We tested the prophylactic effect by treating mice with a mixture of DHCA/Mal-gluc for 2 weeks prior to and throughout RSDS (Fig. 3c). […] Following SI testing, mice were subjected to a sucrose preference test to evaluate the treatment effect on stress-induced anhedonia.
Male C57BL/6 mice (8-week-old) were randomly grouped into two groups: one group received regular drinking water; the other group was treated with BDPP composed of GSPE, RESV and CGJ, delivered through their drinking water, starting 2 weeks prior to RSDS and throughout RSDS and SI testing. The calculated daily intake of GSPE was 200 mg/kg body weight (BW), RESV was 300 mg/kg BW and CGJ was 1 ml/day.
To facilitate the follow-up sucrose preference test, the delivery of the drinking solution was through two 50-ml tubes with sipper top for each cage, starting from the day of initiation of treatment and the two tubes were regularly switched during the treatment. In parallel control studies, mice received similar treatment but were not subjected to RSDS. For therapeutic studies, susceptible mice (SI <0.8) were identified and randomly grouped into two groups either treated with vehicle or DHCA/Mal-gluc for 2 weeks. Mice were subjected to SI, sucrose preference, and splash testing. For testing the therapeutic efficacy of Imipramine, susceptible mice were treated with Imipramine (20 mg/kg-BW/day, i.p.) for 34 days. On day 35, mice were tested for SI 15–20 min after the last injection. […]
All social interaction (SI) tests were performed under red-light conditions. […] Their movements were automatically monitored and recorded (Ethovision 3.0; Noldus Information Technology) for 2.5 min in the absence (target absent phase) of a novel CD-1 mouse and followed by 2.5 min exploratory behavior in the presence of a caged CD-1 mouse (target present phase). SI behavior was then calculated as a ratio of the time spent in the interaction zone with the target present divided by the time spent in the interaction zone with the target absent. […]
Mice were given access to a two-bottle choice of water or 1% sucrose solution and the consumption of each solution was recorded once every 24 h for 48 or 72 h. […] Sucrose preference was calculated as a percentage of sucrose consumption over total liquid consumption. […]

T3 sequence (P34969 whole entry): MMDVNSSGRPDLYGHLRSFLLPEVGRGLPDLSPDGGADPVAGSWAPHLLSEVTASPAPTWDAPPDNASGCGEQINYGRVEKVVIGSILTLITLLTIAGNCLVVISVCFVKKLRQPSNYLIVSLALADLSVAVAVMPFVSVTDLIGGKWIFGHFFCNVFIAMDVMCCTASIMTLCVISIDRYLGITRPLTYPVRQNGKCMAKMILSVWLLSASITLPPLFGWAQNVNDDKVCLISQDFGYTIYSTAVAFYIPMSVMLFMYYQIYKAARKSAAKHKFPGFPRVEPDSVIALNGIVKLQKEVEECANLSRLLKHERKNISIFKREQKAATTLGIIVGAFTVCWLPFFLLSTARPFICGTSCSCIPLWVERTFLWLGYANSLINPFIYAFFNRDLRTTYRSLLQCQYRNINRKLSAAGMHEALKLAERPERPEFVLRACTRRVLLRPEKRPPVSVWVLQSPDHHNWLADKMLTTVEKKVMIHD
T1 sequence (Q12809 whole entry): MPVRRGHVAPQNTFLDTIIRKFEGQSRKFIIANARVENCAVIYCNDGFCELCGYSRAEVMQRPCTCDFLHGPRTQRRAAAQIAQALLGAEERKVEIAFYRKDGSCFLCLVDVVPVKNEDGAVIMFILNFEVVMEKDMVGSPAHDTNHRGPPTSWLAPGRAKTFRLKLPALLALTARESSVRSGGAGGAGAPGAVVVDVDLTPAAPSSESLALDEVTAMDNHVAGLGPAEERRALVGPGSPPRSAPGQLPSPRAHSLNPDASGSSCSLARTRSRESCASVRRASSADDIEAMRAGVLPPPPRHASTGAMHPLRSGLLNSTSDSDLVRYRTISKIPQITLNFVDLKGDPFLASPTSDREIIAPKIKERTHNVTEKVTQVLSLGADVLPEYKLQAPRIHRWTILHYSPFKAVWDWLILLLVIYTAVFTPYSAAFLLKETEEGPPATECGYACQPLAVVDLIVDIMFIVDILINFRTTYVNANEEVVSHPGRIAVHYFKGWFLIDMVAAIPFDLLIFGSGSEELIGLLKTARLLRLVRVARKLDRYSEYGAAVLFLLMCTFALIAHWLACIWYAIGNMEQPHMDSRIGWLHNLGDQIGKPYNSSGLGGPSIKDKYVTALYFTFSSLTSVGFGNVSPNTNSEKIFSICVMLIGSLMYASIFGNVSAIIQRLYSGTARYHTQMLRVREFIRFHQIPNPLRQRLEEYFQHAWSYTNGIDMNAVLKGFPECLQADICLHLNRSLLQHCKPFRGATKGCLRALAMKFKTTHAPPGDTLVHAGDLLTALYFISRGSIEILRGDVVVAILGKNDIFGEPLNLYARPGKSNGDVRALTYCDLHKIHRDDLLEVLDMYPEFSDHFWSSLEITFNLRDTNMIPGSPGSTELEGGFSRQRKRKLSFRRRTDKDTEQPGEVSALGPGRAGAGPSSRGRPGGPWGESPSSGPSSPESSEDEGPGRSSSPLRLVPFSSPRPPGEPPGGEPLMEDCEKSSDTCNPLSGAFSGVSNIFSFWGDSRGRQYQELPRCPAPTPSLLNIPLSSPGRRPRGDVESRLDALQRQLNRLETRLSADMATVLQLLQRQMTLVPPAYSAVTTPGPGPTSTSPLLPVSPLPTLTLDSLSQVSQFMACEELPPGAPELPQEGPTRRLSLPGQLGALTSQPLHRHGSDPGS
T5 sequence (P23975 whole entry): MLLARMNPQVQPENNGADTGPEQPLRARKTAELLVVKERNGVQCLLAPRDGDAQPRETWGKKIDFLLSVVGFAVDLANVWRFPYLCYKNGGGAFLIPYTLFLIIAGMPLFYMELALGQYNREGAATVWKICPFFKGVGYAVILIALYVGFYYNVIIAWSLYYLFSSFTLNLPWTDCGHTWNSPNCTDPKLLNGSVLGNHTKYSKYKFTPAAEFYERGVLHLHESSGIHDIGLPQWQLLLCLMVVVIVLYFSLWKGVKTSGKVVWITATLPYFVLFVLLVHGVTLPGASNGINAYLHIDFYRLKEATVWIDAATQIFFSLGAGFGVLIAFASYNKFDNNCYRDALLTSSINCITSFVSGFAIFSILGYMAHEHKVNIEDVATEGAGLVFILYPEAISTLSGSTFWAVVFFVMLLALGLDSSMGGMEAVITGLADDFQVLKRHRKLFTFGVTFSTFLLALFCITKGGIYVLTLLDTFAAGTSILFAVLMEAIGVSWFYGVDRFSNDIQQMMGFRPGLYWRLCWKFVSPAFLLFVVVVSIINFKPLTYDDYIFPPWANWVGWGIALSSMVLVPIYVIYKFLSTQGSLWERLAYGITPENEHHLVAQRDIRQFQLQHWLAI
T4 sequence (P08172 whole entry): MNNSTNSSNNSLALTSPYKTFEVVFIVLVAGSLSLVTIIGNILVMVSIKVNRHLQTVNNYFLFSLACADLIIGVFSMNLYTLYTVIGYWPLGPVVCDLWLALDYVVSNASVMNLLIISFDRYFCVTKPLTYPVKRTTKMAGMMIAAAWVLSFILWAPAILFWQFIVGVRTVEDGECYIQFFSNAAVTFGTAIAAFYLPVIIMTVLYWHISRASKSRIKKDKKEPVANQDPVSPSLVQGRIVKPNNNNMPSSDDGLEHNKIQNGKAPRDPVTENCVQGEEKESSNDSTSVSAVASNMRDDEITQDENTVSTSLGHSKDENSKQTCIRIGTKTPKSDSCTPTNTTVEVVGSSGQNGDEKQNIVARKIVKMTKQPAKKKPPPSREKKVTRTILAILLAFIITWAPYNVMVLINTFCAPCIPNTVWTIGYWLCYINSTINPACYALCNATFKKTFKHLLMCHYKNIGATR
T2 sequence (P08908 whole entry): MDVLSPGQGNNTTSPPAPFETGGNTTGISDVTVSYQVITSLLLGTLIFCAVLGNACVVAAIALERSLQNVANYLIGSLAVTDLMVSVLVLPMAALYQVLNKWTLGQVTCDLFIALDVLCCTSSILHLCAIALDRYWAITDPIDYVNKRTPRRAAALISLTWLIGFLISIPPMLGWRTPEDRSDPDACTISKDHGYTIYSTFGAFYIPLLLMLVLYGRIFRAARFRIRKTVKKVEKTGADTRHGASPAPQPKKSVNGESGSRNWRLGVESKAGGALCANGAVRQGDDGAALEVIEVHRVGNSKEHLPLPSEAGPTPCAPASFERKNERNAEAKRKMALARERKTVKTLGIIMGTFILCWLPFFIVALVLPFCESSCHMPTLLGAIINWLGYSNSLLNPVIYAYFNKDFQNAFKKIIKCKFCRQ

Row | SMILES | MTT assay, % of vehicle control [1] [%] | LDH assay, % of vehicle control [2] [%] | IC50 [3] [µM] | half-life ([4]; human, plasma) [h] | Binding activity, 5-HT1A (percentage) [5] [%] | Binding activity, 5-HT7 (percentage) [6] [%] | Binding activity, M2 (percentage) (M2 (muscarinic receptor)) [%] | Binding activity, NET (percentage) [7] [%] | anhedonia (sucrose preference), single compound treatment [8] | resilience (SI), single compound treatment [8] | Plasma stability, Half-life (human plasma) [4] [h]
1 | O=C(O)CCc1ccc(O)c(O)c1 [DHCA, 3(3,4-dihydroxy-phenyl) propionic acid] | 100 | 100 | > 25 | 1.11 | 3.3 | 4.2 | −12.2 | −16.4 | neither treatment significantly promoted resilience (Supplementary Fig. 7a) or alleviate anhedonia | neither treatment significantly promoted resilience | –
2 | COc1cc(-c2[o+]c3cc(O)cc(O)c3cc2O[C@@H]2O[C@H](CO)[C@@H](O)[C@H](O)[C@H]2O)cc(OC)c1O [Mal-gluc] | 100 | 100 | > 25 | – | 8.6 | −13.5 | 5.2 | −9.4 | neither treatment significantly promoted resilience (Supplementary Fig. 7a) or alleviate anhedonia | neither treatment significantly promoted resilience | 4.17
